{"source": "patent US20240277698A1", "about": "“METHODS OF USING ALDOSTERONE SYNTHASE INHIBITORS” (CINCOR PHARMA, INC., priority 2021, published 2024)", "key": {"[1]": {"biological_target": "T1, CYP11B1 (Homo sapiens, UniProt P15538)", "T1 construct": "endogenous in cells; host or cells: adrenal cortex of healthy human subjects (in vivo, oral dosing)", "T1 sequence (P15538 25-503)": "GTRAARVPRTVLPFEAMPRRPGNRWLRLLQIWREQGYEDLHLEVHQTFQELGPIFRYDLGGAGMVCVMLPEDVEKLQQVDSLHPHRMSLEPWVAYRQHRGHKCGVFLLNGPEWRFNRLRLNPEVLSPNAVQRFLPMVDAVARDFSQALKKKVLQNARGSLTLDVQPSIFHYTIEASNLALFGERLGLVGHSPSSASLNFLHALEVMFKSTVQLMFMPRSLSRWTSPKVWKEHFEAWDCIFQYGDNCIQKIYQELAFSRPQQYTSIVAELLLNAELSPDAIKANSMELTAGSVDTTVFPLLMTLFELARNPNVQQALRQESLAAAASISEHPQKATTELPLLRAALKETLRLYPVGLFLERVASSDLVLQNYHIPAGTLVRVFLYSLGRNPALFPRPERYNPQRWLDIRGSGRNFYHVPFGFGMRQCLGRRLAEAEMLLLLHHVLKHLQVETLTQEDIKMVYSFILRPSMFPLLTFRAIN", "experiment": "MAD study: plasma cortisol (free and total) and 11-deoxycortisol, with and without Cortrosyn challenge", "type": "in vivo", "settings": "for Plasma 11-deoxycortisol AUC0-12 estimated percent change from baseline, LS Mean / Plasma cortisol AUC0-12 estimated percent change from baseline, LS Mean: Day 10; for cortisol (total or free) or 11-deoxycortisol: doses ≤5 mg, including Cortrosyn challenge", "description": "(§1) For each subject, the study consisted of: • A screening period of up to 28 days; • A 5-day inpatient run-in period during which subjects adhered to a controlled, standardized diet and underwent baseline PD assessments; • A 15-day inpatient treatment period, during which subjects received (R)-compound 1 or placebo once daily for 10 days while adhering to a controlled, standardized diet, followed by PK and PD sampling over an additional 5 days; and • A follow-up visit 3 days (1 day) after discharge from the clinical unit. • A cortisol stimulation test (Cohorts 1 and 2 only) and standing aldosterone assessment (all cohorts) were performed on Days 1 and 10. Serial blood samples for PK and PD were obtained prior to and at specified time points over 24 hours after dosing on Day 1 as well as prior to and at specified time points over 120 hours after dosing on Day 10. In addition, blood samples for PK were collected prior to dosing on Days 8 and 9. Urine for PK and PD measurements was collected over 24 hours starting just prior to dosing on Day 1 as well as over 120 hours starting just prior to dosing on Day 10.\nThese findings are consistent in the presence of Cortrosyn challenge (which occurred with the low salt treatment groups) and in the absence of the challenge (normal salt groups) (Table 13)."}, "[2]": {"biological_target": "T2, aldosterone synthase (Homo sapiens, UniProt P19099)", "T2 construct": "synthesized in the adrenal cortex by aldosterone synthase; endogenous in cells; host or cells: adrenal cortex of healthy human subjects (in vivo, oral dosing)", "T2 sequence (P19099 25-503)": "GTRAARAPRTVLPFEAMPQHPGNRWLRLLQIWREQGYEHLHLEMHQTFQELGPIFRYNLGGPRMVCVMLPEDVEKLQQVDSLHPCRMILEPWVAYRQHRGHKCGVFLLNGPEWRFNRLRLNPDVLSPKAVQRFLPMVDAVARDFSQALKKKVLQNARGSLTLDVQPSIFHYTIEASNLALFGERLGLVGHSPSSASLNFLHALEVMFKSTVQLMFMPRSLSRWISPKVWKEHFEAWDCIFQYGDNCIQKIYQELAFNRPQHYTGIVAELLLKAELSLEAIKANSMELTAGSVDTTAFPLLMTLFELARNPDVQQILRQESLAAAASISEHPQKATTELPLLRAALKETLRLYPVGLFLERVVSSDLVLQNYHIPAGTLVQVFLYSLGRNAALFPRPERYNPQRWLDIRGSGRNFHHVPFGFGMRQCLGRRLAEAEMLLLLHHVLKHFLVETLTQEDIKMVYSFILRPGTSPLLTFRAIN", "experiment": "MAD study: urine aldosterone and tetrahydroaldosterone", "type": "in vivo", "settings": "mean", "description": "as §1\nUrine PD measures included concentrations of • Aldosterone; • Cortisol (free and total); and • Tetrahydroaldosterone.\nFor analysis, the urine PD concentrations were converted to total analyte amounts: Total amount (unit)=concentration (unit/volume) • urine volume"}, "[3]": {"settings": "2.5 mg, low salt diet (Cortrosyn challenge)"}, "[4]": {"settings": "5.0 mg, low salt diet (Cortrosyn challenge)"}}, "note": "Entries after “also recorded” stand apart in the source; their conditions may differ."}
{"smiles": "CCC(=O)N[C@@H]1CCCc2c(-c3ccc4c(c3)CCC(=O)N4C)cncc21", "note": "[(R)-Compound 1, (R)—N-(4-(1-methyl-2-oxo-1,2,3,4-tetrahydroquinolin-6-yl)-5,6,7,8-tetrahydroisoquinolin-8-yl)propionamide]", "values": [{"measurement": "Plasma total cortisol, mean", "setting": "[1]; Day 10, predose, 1.5 mg, normal salt diet", "result": 96.54, "unit": "ng/mL"}, {"measurement": "Plasma total cortisol, mean", "setting": "[1]; Day 10, predose, 2.5 mg, low salt diet", "result": 91.85, "unit": "ng/mL"}, {"measurement": "Plasma total cortisol, mean", "setting": "[1]; Day 10, predose, 2.5 mg, normal salt diet", "result": 106.52, "unit": "ng/mL"}, {"measurement": "Plasma total cortisol, mean", "setting": "[1]; Day 10, predose, 5.0 mg, low salt diet", "result": 112.67, "unit": "ng/mL"}, {"measurement": "Plasma 11-deoxycortisol AUC0-12 estimated percent change from baseline, LS Mean", "setting": "[1]; 0.5 mg, normal salt diet", "result": "−6.77", "unit": "%"}, {"measurement": "Plasma cortisol AUC0-12 estimated percent change from baseline, LS Mean", "setting": "[1]; 0.5 mg, normal salt diet", "result": "−19.53", "unit": "%"}, {"measurement": "Plasma 11-deoxycortisol AUC0-12 estimated percent change from baseline, LS Mean", "setting": "[1]; 1.5 mg, normal salt diet", "result": 1.82, "unit": "%"}, {"measurement": "Plasma cortisol AUC0-12 estimated percent change from baseline, LS Mean", "setting": "[1]; 1.5 mg, normal salt diet", "result": "−4.45", "unit": "%"}, {"measurement": "Plasma 11-deoxycortisol AUC0-12 estimated percent change from baseline, LS Mean", "setting": "[1]; [3]", "result": "−25.69", "unit": "%"}, {"measurement": "Plasma cortisol AUC0-12 estimated percent change from baseline, LS Mean", "setting": "[1]; [3]", "result": "−38.02", "unit": "%"}, {"measurement": "Plasma 11-deoxycortisol AUC0-12 estimated percent change from baseline, LS Mean", "setting": "[1]; 2.5 mg, normal salt diet", "result": "−2.72", "unit": "%"}, {"measurement": "Plasma cortisol AUC0-12 estimated percent change from baseline, LS Mean", "setting": "[1]; 2.5 mg, normal salt diet", "result": "−9.23", "unit": "%"}, {"measurement": "Plasma 11-deoxycortisol AUC0-12 estimated percent change from baseline, LS Mean", "setting": "[1]; [4]", "result": 18.84, "unit": "%"}, {"measurement": "Plasma cortisol AUC0-12 estimated percent change from baseline, LS Mean", "setting": "[1]; [4]", "result": "−37.25", "unit": "%"}, {"measurement": "Plasma total cortisol, mean", "setting": "[1]; Day −1 predose, 0.5 mg, normal salt diet", "result": 86.74, "unit": "ng/mL"}, {"measurement": "Plasma total cortisol, mean", "setting": "[1]; Day −1 predose, 1.5 mg, normal salt diet", "result": 90.79, "unit": "ng/mL"}, {"measurement": "Plasma total cortisol, mean", "setting": "[1]; Day −1 predose, 2.5 mg, low salt diet", "result": 90.39, "unit": "ng/mL"}, {"measurement": "Plasma total cortisol, mean", "setting": "[1]; Day −1 predose, 2.5 mg, normal salt diet", "result": 107.50, "unit": "ng/mL"}, {"measurement": "Plasma total cortisol, mean", "setting": "[1]; Day −1 predose, 5.0 mg, low salt diet", "result": 83.17, "unit": "ng/mL"}, {"measurement": "cortisol (total or free) or 11-deoxycortisol", "setting": "[1]", "result": "remained unaffected"}, {"measurement": "cortisol (total or free) or 11-deoxycortisol", "setting": "[1]; listed as (R)-compound 1", "result": "no apparent effects; also recorded: no apparent differences"}, {"measurement": "Urine aldosterone (ng), Percent change from baseline (Day −1) to Day 1 0-24 hr", "setting": "[2]; 0.5 mg QD, normal salt diet", "result": "−23.7290", "unit": "%"}, {"measurement": "Urine aldosterone (ng), Percent change from baseline (Day −1) to Day 10 0-24 hr", "setting": "[2]; 0.5 mg QD, normal salt diet", "result": 4.2728, "unit": "%"}, {"measurement": "Urine tetrahydroaldosterone (ng), Percent change from baseline (Day −1) to Day 1 0-24 hr", "setting": "[2]; 0.5 mg QD, normal salt diet", "result": "−12.0171", "unit": "%"}, {"measurement": "Urine tetrahydroaldosterone (ng), Percent change from baseline (Day −1) to Day 10 0-24 hr", "setting": "[2]; 0.5 mg QD, normal salt diet", "result": 11.0511, "unit": "%"}, {"measurement": "Urine aldosterone (ng), Percent change from baseline (Day −1) to Day 1 0-24 hr", "setting": "[2]; 1.5 mg QD, normal salt diet", "result": "−67.6229", "unit": "%"}, {"measurement": "Urine aldosterone (ng), Percent change from baseline (Day −1) to Day 10 0-24 hr", "setting": "[2]; 1.5 mg QD, normal salt diet", "result": "−65.6831", "unit": "%"}, {"measurement": "Urine tetrahydroaldosterone (ng), Percent change from baseline (Day −1) to Day 1 0-24 hr", "setting": "[2]; 1.5 mg QD, normal salt diet", "result": "−47.0556", "unit": "%"}, {"measurement": "Urine tetrahydroaldosterone (ng), Percent change from baseline (Day −1) to Day 10 0-24 hr", "setting": "[2]; 1.5 mg QD, normal salt diet", "result": "−60.9034", "unit": "%"}, {"measurement": "Urine aldosterone (ng), Percent change from baseline (Day −1) to Day 1 0-24 hr", "setting": "[2]; 2.5 mg QD, low salt diet", "result": "−61.1877", "unit": "%"}, {"measurement": "Urine aldosterone (ng), Percent change from baseline (Day −1) to Day 10 0-24 hr", "setting": "[2]; 2.5 mg QD, low salt diet", "result": "−19.3985", "unit": "%"}, {"measurement": "Urine tetrahydroaldosterone (ng), Percent change from baseline (Day −1) to Day 1 0-24 hr", "setting": "[2]; 2.5 mg QD, low salt diet", "result": "−26.0540", "unit": "%"}, {"measurement": "Urine tetrahydroaldosterone (ng), Percent change from baseline (Day −1) to Day 10 0-24 hr", "setting": "[2]; 2.5 mg QD, low salt diet", "result": "−6.2967", "unit": "%"}, {"measurement": "Urine aldosterone (ng), Percent change from baseline (Day −1) to Day 1 0-24 hr", "setting": "[2]; 2.5 mg QD, normal salt diet", "result": "−71.7141", "unit": "%"}, {"measurement": "Urine aldosterone (ng), Percent change from baseline (Day −1) to Day 10 0-24 hr", "setting": "[2]; 2.5 mg QD, normal salt diet", "result": "−50.7592", "unit": "%"}, {"measurement": "Urine tetrahydroaldosterone (ng), Percent change from baseline (Day −1) to Day 1 0-24 hr", "setting": "[2]; 2.5 mg QD, normal salt diet", "result": "−59.6517", "unit": "%"}, {"measurement": "Urine tetrahydroaldosterone (ng), Percent change from baseline (Day −1) to Day 10 0-24 hr", "setting": "[2]; 2.5 mg QD, normal salt diet", "result": "−55.1771", "unit": "%"}, {"measurement": "Urine aldosterone (ng), Percent change from baseline (Day −1) to Day 1 0-24 hr", "setting": "[2]; 5.0 mg QD, low salt diet", "result": "−83.5768", "unit": "%"}, {"measurement": "Urine tetrahydroaldosterone (ng), Percent change from baseline (Day −1) to Day 1 0-24 hr", "setting": "[2]; 5.0 mg QD, low salt diet", "result": "−67.5905", "unit": "%"}, {"measurement": "Urine tetrahydroaldosterone (ng), Percent change from baseline (Day −1) to Day 10 0-24 hr", "setting": "[2]; 5.0 mg QD, low salt diet", "result": "−64.5164", "unit": "%"}]}
